In EPA's ToxValDB 9.5 (doi:10.2903/j.efsa.2020.6338):

Columns and labels:
Bovidae = conditions: subchronic; duration: 42 days; oral; diet; M; no effects
Sus scrofa = conditions: subchronic; duration: 42 days; oral; diet; M/F; Not specified; no effects
Gallus gallus = conditions: subchronic; duration: 36 days; oral; diet; M; Chicken; no effects

Structure (SMILES) | LEL (Bovidae) [mg/kg-day] | LEL (Sus scrofa) [mg/kg-day] | LEL (Gallus gallus) [mg/kg-day]
COc1ccc2ccccc2c1 [2-Methoxynaphthalene] | 12 | 12 | 12
OCCc1ccccc1 [2-Phenylethanol] | 125 | 125 | 125
O=C1CCCCCCCCCCCCCCO1 [Pentadecan-15-olide] | 100 | 100 | 100
CC(C)CC(=O)OCCc1ccccc1 [Phenethyl isovalerate] | 300 | 300 | 300

The next lines start with the values.

LEL (Bovidae) [mg/kg-day] | LEL (Sus scrofa) [mg/kg-day] | LEL (Gallus gallus) [mg/kg-day] | Structure (SMILES)
15 | 15 | 15 | Cc1csc(C(C)C)n1 [2-Isopropyl-4-methylthiazole]
1250 | 1250 | 1250 | CC(=O)OCCC(C)C [3-Methylbutyl acetate]
318 | 318 | 318 | CCCCCCC(=O)OCC [Ethyl heptanoate]
300 | 300 | 300 | C=CC(C)(O)CCC=C(C)C (configuration not stated) [Linalool]
5 | 5 | 5 | CC1CCC(C(C)(C)S)C(=O)C1 (configuration not stated) [p-Mentha-8-thiol-3-one]
